From ChEMBL document CHEMBL4715898, “Synthesis and structure-activity relationships of pyrimidine derivatives as potent and orally active FGFR3 inhibitors with both increased systemic exposure and enhanced in vitro potency” (Bioorg Med Chem, 2021)
Converted amounts (≈) assume the structure as drawn.

Test: not given
Conditions: mouse, in vivo, po, 30 mg/kg, 0.75 h

| CL | Structure (SMILES) |
| --- | --- |
| > 600 mL/min/kg | CCNS(=O)(=O)c1ccccc1Nc1nc(Nc2ccc(N3CCC(N4CCN(C)CC4)CC3)c(OC)c2)ncc1NC(=O)c1cc(OC)cc(OC)c1 |
| 227 mL/min/kg | COc1cc(CCc2cnc(Nc3ccc(N4CCC(N5CCN(C)CC5)CC4)c(OC)c3)nc2)cc(OC)c1 |

Test: cells
Conditions: Homo sapiens, NIH3T3, 120 h

| IC50 | Structure (SMILES) |
| --- | --- |
| 34 nM | CCNS(=O)(=O)c1ccccc1Nc1nc(Nc2ccc(N3CCC(N4CCN(C)CC4)CC3)c(OC)c2)ncc1CCc1cc(OC)cc(OC)c1 |
| 99 nM | CCNS(=O)(=O)c1ccccc1Nc1nc(Nc2ccc(N3CCC(N4CCN(C)CC4)CC3)c(OC)c2)ncc1NC(=O)c1cc(OC)cc(OC)c1 |

Test: in vivo
Conditions: ICR, mouse, plasma, po, 30 mg/kg

| concentration at 6 h | Structure (SMILES) |
| --- | --- |
| 98.2 nM | CCNS(=O)(=O)c1ccccc1Nc1nc(Nc2ccc(N3CCC(N4CCN(C)CC4)CC3)c(OC)c2)ncc1NC(=O)c1cc(OC)cc(OC)c1 |
| 1120 nM | COc1cc(CCc2cnc(Nc3ccc(N4CCC(N5CCN(C)CC5)CC4)c(OC)c3)nc2)cc(OC)c1 |

Test: in vitro
Conditions: PAMPA, pH 7.4

| Papp at 2 h | Structure (SMILES) |
| --- | --- |
| 1.8 ×10⁻⁶ cm/s | CCNS(=O)(=O)c1ccccc1Nc1nc(Nc2ccc(N3CCC(N4CCN(C)CC4)CC3)c(OC)c2)ncc1CCc1cc(OC)cc(OC)c1 |
| 1.4 ×10⁻⁶ cm/s | CCNS(=O)(=O)c1ccccc1Nc1nc(Nc2ccc(N3CCC(N4CCN(C)CC4)CC3)c(OC)c2)ncc1NC(=O)c1cc(OC)cc(OC)c1 |
| 18.5 ×10⁻⁶ cm/s | COc1cc(COc2cnc(Nc3ccc(N4CCC(N5CCN(C)CC5)CC4)c(OC)c3)nc2)cc(OC)c1 |
| 19.4 ×10⁻⁶ cm/s | COc1cc(Nc2ncc(CCc3c(F)c(OC)cc(OC)c3Cl)cn2)ccc1N1CCC(N2CCN(C)CC2)CC1 |
| 18.7 ×10⁻⁶ cm/s | COc1cc(Nc2ncc(CCc3c(Cl)c(OC)cc(OC)c3Cl)cn2)ccc1N1CCC(N2CCN(C)CC2)CC1 |
| 15.1 ×10⁻⁶ cm/s | COc1cc(CCc2cnc(Nc3ccc(N4CCC(N5CCN(C)CC5)CC4)c(OC)c3)nc2)cc(OC)c1 |
| < 0.2 ×10⁻⁶ cm/s | COc1cc(OC)cc(C(=O)Nc2cnc(Nc3ccc(N4CCC(N5CCN(C)CC5)CC4)c(OC)c3)nc2NCCS(C)(=O)=O)c1 |
| > 30 ×10⁻⁶ cm/s | COc1cc(OC)cc(OCc2cnc(Nc3ccc(N4CCC(N5CCN(C)CC5)CC4)c(OC)c3)nc2)c1 |
| 18.1 ×10⁻⁶ cm/s | COc1cc(CNc2cnc(Nc3ccc(N4CCC(N5CCN(C)CC5)CC4)c(OC)c3)nc2)cc(OC)c1 |
| 3.7 ×10⁻⁶ cm/s | COc1cc(OC)cc(C(=O)N(C)c2cnc(Nc3ccc(N4CCC(N5CCN(C)CC5)CC4)c(OC)c3)nc2)c1 |
| 24.4 ×10⁻⁶ cm/s | COc1cc(CCc2cnc(Nc3ccc(N4CCC(N5CCN(C)CC5)CC4)c(OC)c3)nc2)c(F)c(OC)c1 |
| 0.4 ×10⁻⁶ cm/s | COc1cc(OC)cc(C(=O)Nc2cnc(Nc3ccc(N4CCC(N5CCN(C)CC5)CC4)c(OC)c3)nc2Nc2ccccc2)c1 |
| < 2.9 ×10⁻⁶ cm/s | COc1cc(OC)cc(C(=O)Nc2cnc(Nc3ccc(N4CCC(N5CCN(C)CC5)CC4)c(OC)c3)nc2)c1 |

Test: physchem
Conditions: JP2 fluid, pH 6.8

| solubility at 20 h, 10000 µM | Structure (SMILES) |
| --- | --- |
| < 1 µM | CCNS(=O)(=O)c1ccccc1Nc1nc(Nc2ccc(N3CCC(N4CCN(C)CC4)CC3)c(OC)c2)ncc1CCc1cc(OC)cc(OC)c1 |
| < 1 µM | CCNS(=O)(=O)c1ccccc1Nc1nc(Nc2ccc(N3CCC(N4CCN(C)CC4)CC3)c(OC)c2)ncc1NC(=O)c1cc(OC)cc(OC)c1 |
| ≥ 100 µM | COc1cc(COc2cnc(Nc3ccc(N4CCC(N5CCN(C)CC5)CC4)c(OC)c3)nc2)cc(OC)c1 |
| 12 µM (≈ 7.19 µg/mL) | COc1cc(Nc2ncc(CCc3c(F)c(OC)cc(OC)c3Cl)cn2)ccc1N1CCC(N2CCN(C)CC2)CC1 |
| 5 µM (≈ 3.08 µg/mL) | COc1cc(Nc2ncc(CCc3c(Cl)c(OC)cc(OC)c3Cl)cn2)ccc1N1CCC(N2CCN(C)CC2)CC1 |
| ≥ 100 µM | COc1cc(CCc2cnc(Nc3ccc(N4CCC(N5CCN(C)CC5)CC4)c(OC)c3)nc2)cc(OC)c1 |
| ≥ 100 µM | COc1cc(OC)cc(C(=O)Nc2cnc(Nc3ccc(N4CCC(N5CCN(C)CC5)CC4)c(OC)c3)nc2NCCS(C)(=O)=O)c1 |
| ≥ 100 µM | COc1cc(OC)cc(OCc2cnc(Nc3ccc(N4CCC(N5CCN(C)CC5)CC4)c(OC)c3)nc2)c1 |
| ≥ 100 µM | COc1cc(CNc2cnc(Nc3ccc(N4CCC(N5CCN(C)CC5)CC4)c(OC)c3)nc2)cc(OC)c1 |
| ≥ 100 µM | COc1cc(OC)cc(C(=O)N(C)c2cnc(Nc3ccc(N4CCC(N5CCN(C)CC5)CC4)c(OC)c3)nc2)c1 |
| ≥ 100 µM | COc1cc(CCc2cnc(Nc3ccc(N4CCC(N5CCN(C)CC5)CC4)c(OC)c3)nc2)c(F)c(OC)c1 |
| 36 µM (≈ 23.5 µg/mL) | COc1cc(OC)cc(C(=O)Nc2cnc(Nc3ccc(N4CCC(N5CCN(C)CC5)CC4)c(OC)c3)nc2Nc2ccccc2)c1 |
| ≥ 100 µM | COc1cc(OC)cc(C(=O)Nc2cnc(Nc3ccc(N4CCC(N5CCN(C)CC5)CC4)c(OC)c3)nc2)c1 |

Test: physchem
Conditions: buffer, pH 7.4

| logD | Structure (SMILES) |
| --- | --- |
| > 4.8 | CCNS(=O)(=O)c1ccccc1Nc1nc(Nc2ccc(N3CCC(N4CCN(C)CC4)CC3)c(OC)c2)ncc1CCc1cc(OC)cc(OC)c1 |
| > 3.9 | CCNS(=O)(=O)c1ccccc1Nc1nc(Nc2ccc(N3CCC(N4CCN(C)CC4)CC3)c(OC)c2)ncc1NC(=O)c1cc(OC)cc(OC)c1 |
| 3.2 | COc1cc(COc2cnc(Nc3ccc(N4CCC(N5CCN(C)CC5)CC4)c(OC)c3)nc2)cc(OC)c1 |
| 3.5 | COc1cc(Nc2ncc(CCc3c(F)c(OC)cc(OC)c3Cl)cn2)ccc1N1CCC(N2CCN(C)CC2)CC1 |
| 4.4 | COc1cc(Nc2ncc(CCc3c(Cl)c(OC)cc(OC)c3Cl)cn2)ccc1N1CCC(N2CCN(C)CC2)CC1 |
| 3.5 | COc1cc(CCc2cnc(Nc3ccc(N4CCC(N5CCN(C)CC5)CC4)c(OC)c3)nc2)cc(OC)c1 |
| 1.8 | COc1cc(OC)cc(C(=O)Nc2cnc(Nc3ccc(N4CCC(N5CCN(C)CC5)CC4)c(OC)c3)nc2NCCS(C)(=O)=O)c1 |
| 3.4 | COc1cc(OC)cc(OCc2cnc(Nc3ccc(N4CCC(N5CCN(C)CC5)CC4)c(OC)c3)nc2)c1 |
| 2.9 | COc1cc(CNc2cnc(Nc3ccc(N4CCC(N5CCN(C)CC5)CC4)c(OC)c3)nc2)cc(OC)c1 |
| 1.8 | COc1cc(OC)cc(C(=O)N(C)c2cnc(Nc3ccc(N4CCC(N5CCN(C)CC5)CC4)c(OC)c3)nc2)c1 |
| 3.2 | COc1cc(CCc2cnc(Nc3ccc(N4CCC(N5CCN(C)CC5)CC4)c(OC)c3)nc2)c(F)c(OC)c1 |
| 3.7 | COc1cc(OC)cc(C(=O)Nc2cnc(Nc3ccc(N4CCC(N5CCN(C)CC5)CC4)c(OC)c3)nc2Nc2ccccc2)c1 |
| 2.8 | COc1cc(OC)cc(C(=O)Nc2cnc(Nc3ccc(N4CCC(N5CCN(C)CC5)CC4)c(OC)c3)nc2)c1 |

Test: animal or person
Conditions: Mus musculus, Balb/c, NIH3T3, po, 6 h, read-out: INH

| Structure (SMILES) | inhibition in vivo at 30 mg/kg |
| --- | --- |
| COc1cc(CCc2cnc(Nc3ccc(N4CCC(N5CCN(C)CC5)CC4)c(OC)c3)nc2)cc(OC)c1 | 21% |
